Measured values from patent US8574563B2 (Bristol-Myers Squibb Company, priority 2006, dated 2013).

Tested on: HCV 1b-377-neo replicon cells
Assay: HCV replicon assay, HCV 1b-377-neo replicon cells (1b FRET)
Assay type: cell-based, Hepatitis C virus genotype 1b
Settings: Hepatitis C virus, HCV 1b-377-neo replicon cells; HCV 1b genotype; read-out: EC50 range against HCV 1b (Table 2, Range)
In short: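 FRET-based replicon assay in HCV 1b-377-neo cells, including a comparison line carrying the NS5A Y2065H mutation that confers resistance to a reference compound.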

## COC(=O)N[C@@H](C)C(=O)N1CCC[C@H]1c1ncc(-c2ccc(-c3ccc(-c4cnc([C@@H]5CCCN5C(=O)[C@H](Cc5ccccn5)NC(=O)OC)[nH]4)cc3)cc2)[nH]1 [cj-66, methyl ((1S)-2-((2S)-2-(5-(4′-(2-((2S)-1-(N-(methoxycarbonyl)-L-alanyl)-2-pyrrolidinyl)-1H-imidazol-5-yl)-4-biphenylyl)-1H-imidazol-2-yl)-1-pyrrolidinyl)-2-oxo-1-(2-pyridinylmethyl)ethyl)carbamate]
  EC50: 0.001 to 0.999 nM

## COC(=O)N[C@@H](Cc1ccccn1)C(=O)N1CCC[C@H]1c1ncc(-c2ccc(-c3ccc(-c4cnc([C@@H]5CCCN5C(=O)[C@@H](NC(=O)OC)[C@@H](C)OC)[nH]4)cc3)cc2)[nH]1 [cj-67]
  EC50: 0.001 to 0.999 nM

## CCN(CC)[C@@H](C(=O)N1CCC[C@H]1c1ncc(-c2ccc(-c3ccc(-c4cnc([C@@H]5CCCN5C(=O)[C@H](Cc5ccccn5)NC(=O)OC)[nH]4)cc3)cc2)[nH]1)c1ccccc1 [cj-68, methyl ((1S)-2-((2S)-2-(5-(4′-(2-((2S)-1-((2R)-2-(diethylamino)-2-phenylacetyl)-2-pyrrolidinyl)-1H-imidazol-5-yl)-4-biphenylyl)-1H-imidazol-2-yl)-1-pyrrolidinyl)-2-oxo-1-(2-pyridinylmethyl)ethyl)carbamate]
  EC50: 0.001 to 0.999 nM

## COC(=O)N[C@H](C(=O)N1CCC[C@H]1c1ncc(-c2ccc(-c3ccc(-c4cnc([C@@H]5CCCN5C(=O)[C@H]5CC[C@@H](NC(=O)OC)CC5)[nH]4)cc3)cc2)[nH]1)C(C)C [cj-69, methyl ((1S)-1-(((2S)-2-(5-(4′-(2-((2S)-1-((cis-4-((methoxycarbonyl)amino)cyclohexyl)carbonyl)-2-pyrrolidinyl)-1H-imidazol-5-yl)-4-biphenylyl)-1H-imidazol-2-yl)-1-pyrrolidinyl)carbonyl)-2-methylpropyl)carbamate]
  EC50: 0.001 to 0.999 nM

## COC(=O)N[C@H](C(=O)N1CCC[C@H]1c1ncc(-c2ccc(-c3ccc(-c4cnc([C@@H]5CCCN5C(=O)[C@H]5CC[C@H](NC(=O)OC)CC5)[nH]4)cc3)cc2)[nH]1)C(C)C [cj-70, methyl ((1S)-1-(((2S)-2-(5-(4′-(2-((2S)-1-((trans-4-((methoxycarbonyl)amino)cyclohexyl)carbonyl)-2-pyrrolidinyl)-1H-imidazol-5-yl)-4-biphenylyl)-1H-imidazol-2-yl)-1-pyrrolidinyl)carbonyl)-2-methylpropyl)carbamate]
  EC50: 0.001 to 0.999 nM

## CCN(CC)[C@H]1CC[C@@H](C(=O)N2CCC[C@H]2c2ncc(-c3ccc(-c4ccc(-c5cnc([C@@H]6CCCN6C(=O)[C@@H](NC(=O)OC)C(C)C)[nH]5)cc4)cc3)[nH]2)CC1 [cj-71, methyl ((1S)-1-(((2S)-2-(5-(4′-(2-((2S)-1-((cis-4-(diethylamino)cyclohexyl)carbonyl)-2-pyrrolidinyl)-1H-imidazol-5-yl)-4-biphenylyl)-1H-imidazol-2-yl)-1-pyrrolidinyl)carbonyl)-2-methylpropyl)carbamate]
  EC50: 0.001 to 0.999 nM

## CCN(CC)[C@H]1CC[C@@H](C(=O)N2CCC[C@H]2c2ncc(-c3ccc(-c4ccc(-c5cnc([C@@H]6CCCN6C(=O)[C@@H](NC(=O)OC)[C@@H](C)OC)[nH]5)cc4)cc3)[nH]2)CC1 [cj-72, methyl ((1S,2R)-1-(((2S)-2-(5-(4′-(2-((2S)-1-((cis-4-(diethylamino)cyclohexyl)carbonyl)-2-pyrrolidinyl)-1H-imidazol-5-yl)-4-biphenylyl)-1H-imidazol-2-yl)-1-pyrrolidinyl)carbonyl)-2-methoxypropyl)carbamate]
  EC50: 0.001 to 0.999 nM

## CCN(CC)[C@@H](C(=O)N1CCC[C@H]1c1ncc(-c2ccc(-c3ccc(-c4cnc([C@@H]5CCCN5C(=O)[C@H]5CC[C@@H](N(CC)CC)CC5)[nH]4)cc3)cc2)[nH]1)c1ccccc1 [cj-73, cis-4-(((2S)-2-(5-(4′-(2-((2S)-1-((2R)-2-(diethylamino)-2-phenylacetyl)-2-pyrrolidinyl)-1H-imidazol-5-yl)-4-biphenylyl)-1H-imidazol-2-yl)-1-pyrrolidinyl)carbonyl)-N,N-diethylcyclohexanamine]
  EC50: 0.001 to 0.999 nM

## CCN(CC)[C@H]1CC[C@@H](C(=O)N2CCC[C@H]2c2ncc(-c3ccc(-c4ccc(-c5cnc([C@@H]6CCCN6C(=O)[C@H](C)NC(=O)OC)[nH]5)cc4)cc3)[nH]2)CC1 [cj-74, methyl ((1S)-2-((2S)-2-(5-(4′-(2-((2S)-1-((cis-4-(diethylamino)cyclohexyl)carbonyl)-2-pyrrolidinyl)-1H-imidazol-5-yl)-4-biphenylyl)-1H-imidazol-2-yl)-1-pyrrolidinyl)-1-methyl-2-oxoethyl)carbamate]
  EC50: 1 to 99 nM

## COC(=O)N[C@@H](Cc1cn(Cc2ccccc2)cn1)C(=O)N1CCC[C@H]1c1ncc(-c2ccc(-c3ccc(-c4cnc([C@@H]5CCCN5C(=O)[C@@H](NC(=O)OC)[C@@H](C)OC)[nH]4)cc3)cc2)[nH]1 [cj-75, methyl ((1S)-1-((1-benzyl-1H-imidazol-4-yl)methyl)-2-((2S)-2-(5-(4′-(2-((2S)-1-((2S,3R)-3-methoxy-2-((methoxycarbonyl)amino)butanoyl)-2-pyrrolidinyl)-1H-imidazol-5-yl)-4-biphenylyl)-1H-irnidazol-2-yl)-1-pyrrolidinyl)-2-oxoethyl)carbamate]
  EC50: 0.001 to 0.999 nM

## COC(=O)N[C@@H](Cc1cn(Cc2ccccc2)cn1)C(=O)N1CCC[C@H]1c1ncc(-c2ccc(-c3ccc(-c4cnc([C@@H]5CCCN5C(=O)[C@@H](NC(=O)OC)C(C)C)[nH]4)cc3)cc2)[nH]1 [cj-76, methyl ((1S)-1-(((2S)-2-(5-(4′-(2-((2S)-1-((2S)-3-(1-benzyl-1H-imidazol-4-yl)-2-((methoxycarbonyl)amino)propanoyl)-2-pyrrolidinyl)-1H-imidazol-5-yl)-4-biphenylyl)-1H-imidazol-2-yl)-1-pyrrolidinyl)carbonyl)-2-methylpropyl)carbamate]
  EC50: 0.001 to 0.999 nM

## COC(=O)N[C@@H](C)C(=O)N1CCC[C@H]1c1ncc(-c2ccc(-c3ccc(-c4cnc([C@@H]5CCCN5C(=O)[C@H](Cc5cn(Cc6ccccc6)cn5)NC(=O)OC)[nH]4)cc3)cc2)[nH]1 [cj-77, methyl ((1S)-2-((2S)-2-(5-(4′-(2-((2S)-1-((2S)-3-(1-benzyl-1H-imidazol-4-yl)-2-((methoxycarbonyl)amino)propanoyl)-2-pyrrolidinyl)-1H-imidazol-5-yl)-4-biphenylyl)-1H-imidazol-2-yl)-1-pyrrolidinyl)-1-methyl-2-oxoethyl)carbamate]
  EC50: 0.001 to 0.999 nM

## COC(=O)N[C@@H](Cc1cscn1)C(=O)N1CCC[C@H]1c1ncc(-c2ccc(-c3ccc(-c4cnc([C@@H]5CCCN5C(=O)[C@@H](NC(=O)OC)[C@@H](C)OC)[nH]4)cc3)cc2)[nH]1 [cj-78, methyl ((1S)-2-((2S)-2-(5-(4′-(2-((2S)-1-((2S,3R)-3-methoxy-2-((methoxycarbonyl)amino)butanoyl)-2-pyrrolidinyl)-1H-imidazol-5-yl)-4-biphenylyl)-1H-imidazol-2-yl)-1-pyrrolidinyl)-2-oxo-1-(1,3-thiazol-4-ylmethyl)ethyl)carbamate]
  EC50: 0.001 to 0.999 nM

## COC(=O)N[C@@H](Cc1cscn1)C(=O)N1CCC[C@H]1c1ncc(-c2ccc(-c3ccc(-c4cnc([C@@H]5CCCN5C(=O)[C@@H](NC(=O)OC)C(C)C)[nH]4)cc3)cc2)[nH]1 [cj-79, methyl ((1S)-1-(((2S)-2-(5-(4′-(2-((2S)-1-((2S)-2-((methoxycarbonyl)amino)-3-(1,3-thiazol-4-yl)propanoyl)-2-pyrrolidinyl)-1H-imidazol-5-yl)-4-biphenylyl)-1H-imidazol-2-yl)-1-pyrrolidinyl)carbonyl)-2-methylpropyl)carbamate]
  EC50: 0.001 to 0.999 nM

## CCN(CC)[C@@H](C(=O)N1CCC[C@H]1c1ncc(-c2ccc(-c3ccc(-c4cnc([C@@H]5CCCN5C(=O)[C@H](Cc5cscn5)NC(=O)OC)[nH]4)cc3)cc2)[nH]1)c1ccccc1 [cj-80, methyl ((1S)-2-((2S)-2-(5-(4′-(2-((2S)-1-((2R)-2-(diethylamino)-2-phenylacetyl)-2-pyrrolidinyl)-1H-imidazol-5-yl)-4-biphenylyl)-1H-imidazol-2-yl)-1-pyrrolidinyl)-2-oxo-1-(1,3-thiazol-4-ylmethyl)ethyl)carbamate]
  EC50: 0.001 to 0.999 nM

## COC(=O)N[C@@H](C)C(=O)N1CCC[C@H]1c1ncc(-c2ccc(-c3ccc(-c4cnc([C@@H]5CCCN5C(=O)[C@H](Cc5cscn5)NC(=O)OC)[nH]4)cc3)cc2)[nH]1 [cj-81, methyl ((1S)-2-((2S)-2-(5-(4′-(2-((2S)-1-(N-(methoxycarbonyl)-L-alanyl)-2-pyrrolidinyl)-1H-imidazol-5-yl)-4-biphenylyl)-1H-imidazol-2-yl)-1-pyrrolidinyl)-2-oxo-1-(1,3-thiazol-4-ylmethyl)ethyl)carbamate]
  EC50: 0.001 to 0.999 nM

## COC(=O)N[C@@H](Cc1cccnc1)C(=O)N1CCC[C@H]1c1ncc(-c2ccc(-c3ccc(-c4cnc([C@@H]5CCCN5C(=O)[C@@H](NC(=O)OC)[C@@H](C)OC)[nH]4)cc3)cc2)[nH]1 [cj-82, methyl ((1S)-2-((2S)-2-(5-(4′-(2-((2S)-1-((2S,3R)-3-methoxy-2-((methoxycarbonyl)amino)butanoyl)-2-pyrrolidinyl)-1H-imidazol-5-yl)-4-biphenylyl)-1H-imidazol-2-yl)-1-pyrrolidinyl)-2-oxo-1-(3-pyridinylmethyl)ethyl)carbamate]
  EC50: 0.001 to 0.999 nM

## COC(=O)N[C@@H](Cc1cccnc1)C(=O)N1CCC[C@H]1c1ncc(-c2ccc(-c3ccc(-c4cnc([C@@H]5CCCN5C(=O)[C@@H](NC(=O)OC)C(C)C)[nH]4)cc3)cc2)[nH]1 [cj-83, methyl ((1S)-2-((2S)-2-(5-(4′-(2-((2S)-1-((2S)-2-((methoxycarbonyl)amino)-3-methylbutanoyl)-2-pyrrolidinyl)-1H-imidazol-5-yl)-4-biphenylyl)-1H-imidazol-2-yl)-1-pyrrolidinyl)-2-oxo-1-(3-pyridinylmethyl)ethyl)carbamate]
  EC50: 0.001 to 0.999 nM
